Assays:
[1] = target: T1, Alpha-1B adrenergic receptor (Rattus norvegicus, UniProt P15823); assay: DRUGMATRIX: Alpha-1B adrenergic receptor radioligand binding (ligand: prazosin); assay type: cell membranes, Wistar, Liver, Membrane; details: Not Active = under 50% inhibition at 10 µM
T1 sequence (P15823 whole entry): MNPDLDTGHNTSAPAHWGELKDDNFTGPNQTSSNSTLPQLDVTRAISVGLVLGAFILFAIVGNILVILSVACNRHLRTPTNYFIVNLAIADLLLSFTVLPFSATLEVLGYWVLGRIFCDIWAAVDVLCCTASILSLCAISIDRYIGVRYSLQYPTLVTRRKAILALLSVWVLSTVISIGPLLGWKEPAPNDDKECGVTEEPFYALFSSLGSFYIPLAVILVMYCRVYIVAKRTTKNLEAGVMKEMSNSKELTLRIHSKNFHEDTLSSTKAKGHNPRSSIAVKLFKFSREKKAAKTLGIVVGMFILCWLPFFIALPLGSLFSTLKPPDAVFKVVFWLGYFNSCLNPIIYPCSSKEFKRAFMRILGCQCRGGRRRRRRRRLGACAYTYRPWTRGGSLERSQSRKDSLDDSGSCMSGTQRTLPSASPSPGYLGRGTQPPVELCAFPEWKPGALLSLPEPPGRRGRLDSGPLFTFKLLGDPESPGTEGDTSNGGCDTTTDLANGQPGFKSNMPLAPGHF

Endothelin-1 receptor = target: T2, Endothelin-1 receptor (Homo sapiens, UniProt P25101); assay type: cell membranes, CHO-K1, Membrane; details: cho-k1; note: in other assays of this panel Not Active means under 50% inhibition at 10 µM
T2 sequence (P25101 whole entry): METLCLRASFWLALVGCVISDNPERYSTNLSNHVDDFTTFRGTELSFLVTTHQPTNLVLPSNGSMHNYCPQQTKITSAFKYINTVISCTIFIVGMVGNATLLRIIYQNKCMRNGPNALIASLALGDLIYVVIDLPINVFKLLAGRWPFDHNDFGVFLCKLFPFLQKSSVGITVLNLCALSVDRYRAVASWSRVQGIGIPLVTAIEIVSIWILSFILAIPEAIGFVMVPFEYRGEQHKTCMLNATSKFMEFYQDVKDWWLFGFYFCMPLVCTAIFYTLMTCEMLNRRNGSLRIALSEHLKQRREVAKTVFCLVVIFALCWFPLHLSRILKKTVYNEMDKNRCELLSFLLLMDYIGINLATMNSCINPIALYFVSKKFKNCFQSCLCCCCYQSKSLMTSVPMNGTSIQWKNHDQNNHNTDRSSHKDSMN

[2] = DRUGMATRIX: Glutamate, NMDA, Agonism radioligand binding (ligand: [3H] CGP-39653); assay type: cell membranes, Rattus norvegicus, Wistar, Cerebral cortex, Membrane; details: Not Active = under 50% inhibition at 10 µM
Mu-type opioid receptor = Mu-type opioid receptor (Homo sapiens, UniProt P35372); assay: DRUGMATRIX: Opiate mu (OP3, MOP) radioligand binding (ligand: [3H] Diprenorphine); assay type: cell membranes, CHO-K1, Membrane; details: cho-k1; Not Active = under 50% inhibition at 10 µM
Sequence of Mu-type opioid receptor (P35372 whole entry): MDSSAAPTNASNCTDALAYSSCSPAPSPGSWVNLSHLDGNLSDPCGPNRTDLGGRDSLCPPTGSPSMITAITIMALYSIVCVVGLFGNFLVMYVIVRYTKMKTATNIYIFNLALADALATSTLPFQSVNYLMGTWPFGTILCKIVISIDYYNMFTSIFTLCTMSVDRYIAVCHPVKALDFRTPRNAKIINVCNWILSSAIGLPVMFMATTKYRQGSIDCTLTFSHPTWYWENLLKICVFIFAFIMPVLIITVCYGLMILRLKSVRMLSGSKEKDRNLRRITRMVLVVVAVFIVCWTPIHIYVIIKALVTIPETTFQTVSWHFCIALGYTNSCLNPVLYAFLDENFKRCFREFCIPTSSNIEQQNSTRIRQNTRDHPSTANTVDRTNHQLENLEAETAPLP

Neutrophil elastase = target: T3, Neutrophil elastase (Homo sapiens, UniProt P08246); assay type: tissue-based;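 note: inhibition of neutrophil elastase enzyme activity, measured with a p-nitroanilide-linked peptide substrate; in other assays of this panel Not Active means under 50% inhibition at 10 µM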
T3 sequence (P08246 whole entry): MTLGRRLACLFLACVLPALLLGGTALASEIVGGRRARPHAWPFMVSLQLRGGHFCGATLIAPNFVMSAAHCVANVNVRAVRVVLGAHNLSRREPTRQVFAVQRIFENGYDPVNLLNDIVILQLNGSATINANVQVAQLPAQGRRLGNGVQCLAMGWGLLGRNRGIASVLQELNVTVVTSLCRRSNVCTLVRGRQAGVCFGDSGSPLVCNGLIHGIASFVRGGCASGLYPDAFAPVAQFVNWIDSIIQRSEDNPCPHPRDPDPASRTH

[3] = target: Tyrosine-protein kinase Lck (Homo sapiens, UniProt P06239); assay: DRUGMATRIX: Protein Tyrosine Kinase, LCK enzyme inhibition (substrate: Poly(Glu:Tyr)); assay type: cell-based, Insect cells; details: insect cells; Not Active = under 50% inhibition at 10 µM
Sequence of Tyrosine-protein kinase Lck (P06239 whole entry): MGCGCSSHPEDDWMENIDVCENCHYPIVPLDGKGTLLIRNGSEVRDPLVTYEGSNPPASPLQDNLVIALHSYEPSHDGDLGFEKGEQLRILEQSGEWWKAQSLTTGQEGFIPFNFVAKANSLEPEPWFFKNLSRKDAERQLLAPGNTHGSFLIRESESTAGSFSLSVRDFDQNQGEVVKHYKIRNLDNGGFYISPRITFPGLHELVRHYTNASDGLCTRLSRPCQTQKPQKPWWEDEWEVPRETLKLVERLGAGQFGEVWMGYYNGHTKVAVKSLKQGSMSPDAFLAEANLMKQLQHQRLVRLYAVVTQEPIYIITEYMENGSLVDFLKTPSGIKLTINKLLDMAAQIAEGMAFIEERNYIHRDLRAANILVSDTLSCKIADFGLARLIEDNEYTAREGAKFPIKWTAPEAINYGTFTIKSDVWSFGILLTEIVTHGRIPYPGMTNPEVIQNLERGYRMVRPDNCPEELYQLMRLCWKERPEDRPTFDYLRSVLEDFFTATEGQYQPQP

Estrogen receptor = target: T4, Estrogen receptor (Homo sapiens, UniProt P03372); details: sf9; note: in other assays of this panel Not Active means under 50% inhibition at 10 µM
T4 sequence (P03372 whole entry): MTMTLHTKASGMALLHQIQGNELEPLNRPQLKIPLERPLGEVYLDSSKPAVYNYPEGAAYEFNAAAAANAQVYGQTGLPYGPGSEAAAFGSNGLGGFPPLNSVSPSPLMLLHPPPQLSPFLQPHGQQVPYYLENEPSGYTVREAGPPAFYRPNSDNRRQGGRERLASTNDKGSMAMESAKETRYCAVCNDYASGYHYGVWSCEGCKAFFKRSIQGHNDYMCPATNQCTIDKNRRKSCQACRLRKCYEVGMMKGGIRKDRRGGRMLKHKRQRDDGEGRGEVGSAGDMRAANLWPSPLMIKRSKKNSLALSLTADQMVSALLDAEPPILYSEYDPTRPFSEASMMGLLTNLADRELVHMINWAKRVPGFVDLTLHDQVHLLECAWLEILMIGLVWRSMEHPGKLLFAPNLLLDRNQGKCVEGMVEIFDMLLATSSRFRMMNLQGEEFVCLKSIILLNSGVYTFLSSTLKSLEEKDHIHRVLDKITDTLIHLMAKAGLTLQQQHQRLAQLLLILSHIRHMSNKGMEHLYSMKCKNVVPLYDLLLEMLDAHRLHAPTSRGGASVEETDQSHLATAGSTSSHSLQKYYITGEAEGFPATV

CC(C(=O)O)c1ccc(CC2CCCC2=O)cc1 (stereo not drawn) [LOXOPROFEN]
Not Active: IC50 [1] | IC50 (Endothelin-1 receptor) | IC50 [2] | Ki [2] | IC50 (Mu-type opioid receptor) | IC50 (Neutrophil elastase) | IC50 [3] | IC50 (Estrogen receptor)

CC(=O)O[C@]1(C(C)=O)CC[C@H]2[C@@H]3C=C(C)C4=CC(=O)CC[C@]4(C)[C@H]3CC[C@@]21C [MEGESTROL ACETATE]
Not Active: IC50 [1] | IC50 (Endothelin-1 receptor) | IC50 [2] | Ki [2] | IC50 (Mu-type opioid receptor) | IC50 (Neutrophil elastase) | IC50 [3] | IC50 (Estrogen receptor)

COc1ccccc1OCC(O)COC(N)=O (stereo not drawn) [METHOCARBAMOL]
Not Active: IC50 [1] | IC50 (Endothelin-1 receptor) | IC50 [2] | Ki [2] | IC50 (Mu-type opioid receptor) | IC50 (Neutrophil elastase) | IC50 [3] | IC50 (Estrogen receptor)

CN(Cc1cnc2nc(N)nc(N)c2n1)c1ccc(C(=O)N[C@@H](CCC(=O)O)C(=O)O)cc1 [METHOTREXATE]
Not Active: IC50 [1] | IC50 (Endothelin-1 receptor) | IC50 [2] | Ki [2] | IC50 (Mu-type opioid receptor) | IC50 (Neutrophil elastase) | IC50 [3] | IC50 (Estrogen receptor)

COC(=O)c1ccccc1O [METHYL SALICYLATE]
Not Active: IC50 [1] | IC50 (Endothelin-1 receptor) | IC50 [2] | Ki [2] | IC50 (Mu-type opioid receptor) | IC50 (Neutrophil elastase) | IC50 [3] | IC50 (Estrogen receptor)

C[C@]12C/C(=C/O)C(=O)C[C@@H]1CC[C@@H]1[C@@H]2CC[C@@]2(C)[C@H]1CC[C@]2(C)O [OXYMETHOLONE]
Not Active: IC50 [1] | IC50 (Endothelin-1 receptor) | IC50 [2] | Ki [2] | IC50 (Mu-type opioid receptor) | IC50 (Neutrophil elastase) | IC50 [3] | IC50 (Estrogen receptor)

CC(C)(CO)C(O)C(=O)NCCCO (stereo not drawn) [PANTHENOL]
Not Active: IC50 [1] | IC50 (Endothelin-1 receptor) | IC50 [2] | Ki [2] | IC50 (Mu-type opioid receptor) | IC50 (Neutrophil elastase) | IC50 [3] | IC50 (Estrogen receptor)

OCCN1CCN(CCCN2c3ccccc3Sc3ccc(Cl)cc32)CC1 [PERPHENAZINE]
Not Active: IC50 [1] | IC50 (Endothelin-1 receptor) | IC50 [2] | Ki [2] | IC50 (Mu-type opioid receptor) | IC50 (Neutrophil elastase) | IC50 [3] | IC50 (Estrogen receptor)

CCCCC1C(=O)N(c2ccccc2)N(c2ccccc2)C1=O [PHENYLBUTAZONE]
Not Active: IC50 [1] | IC50 (Endothelin-1 receptor) | IC50 [2] | Ki [2] | IC50 (Mu-type opioid receptor) | IC50 (Neutrophil elastase) | IC50 [3] | IC50 (Estrogen receptor)

Cc1cccc(Nc2cc(Cl)nc(SCC(=O)O)n2)c1C [PIRINIXIC ACID]
Not Active: IC50 [1] | IC50 (Endothelin-1 receptor) | IC50 [2] | Ki [2] | IC50 (Mu-type opioid receptor) | IC50 (Neutrophil elastase) | IC50 [3] | IC50 (Estrogen receptor)

CC[C@H](C)C(=O)O[C@H]1C[C@H](O)C=C2C=C[C@H](C)[C@H](CC[C@@H](O)C[C@@H](O)CC(=O)O)[C@H]21 [PRAVASTATIN]
Not Active: IC50 [1] | IC50 (Endothelin-1 receptor) | IC50 [2] | Ki [2] | IC50 (Mu-type opioid receptor) | IC50 (Neutrophil elastase) | IC50 [3] | IC50 (Estrogen receptor)

Reference: ChEMBL document CHEMBL1909046, “DrugMatrix in vitro pharmacology data”
